Laboratory results taken from paper PMC11600510 (Journal of Chemical Information and Modeling, 2024).
“Also recorded” adds a separate entry of the source.

Key:
SARS-CoV-2 [1] = format: cell-based
[2] = biological target: T1, Spike RBD/ACE2 (19–615) interaction (Severe acute respiratory syndrome coronavirus 2, UniProt P0DTC2); assay: cell-based; format: cell-based, SARS-CoV-2; conditions: HEK-293T, 48 h, read-out: suppression of Spike RBD/ACE2 (19–615) interaction
T1 construct: S protein RBD (aa residues 319–541) of SARS-CoV-2; expressed in transfected cells; host or cells: HEK293T

E. coli WP2 uvrA strain = assay: Microbial mutagenicity assay (Ames test)
CYP2B6 = biological target: T2, CYP2B6 (Homo sapiens, UniProt P20813); assay: Isozyme-specific CYP450 inhibition; format: in vitro ADME; conditions: recombinant human CYP2B6 with CYP450 reductase (Baculosomes), probe fluorescent substrate (not named)
T2 construct: purchased Thermo Fisher Scientific; host or cells: Baculosomes
T2 sequence (P20813 1-491): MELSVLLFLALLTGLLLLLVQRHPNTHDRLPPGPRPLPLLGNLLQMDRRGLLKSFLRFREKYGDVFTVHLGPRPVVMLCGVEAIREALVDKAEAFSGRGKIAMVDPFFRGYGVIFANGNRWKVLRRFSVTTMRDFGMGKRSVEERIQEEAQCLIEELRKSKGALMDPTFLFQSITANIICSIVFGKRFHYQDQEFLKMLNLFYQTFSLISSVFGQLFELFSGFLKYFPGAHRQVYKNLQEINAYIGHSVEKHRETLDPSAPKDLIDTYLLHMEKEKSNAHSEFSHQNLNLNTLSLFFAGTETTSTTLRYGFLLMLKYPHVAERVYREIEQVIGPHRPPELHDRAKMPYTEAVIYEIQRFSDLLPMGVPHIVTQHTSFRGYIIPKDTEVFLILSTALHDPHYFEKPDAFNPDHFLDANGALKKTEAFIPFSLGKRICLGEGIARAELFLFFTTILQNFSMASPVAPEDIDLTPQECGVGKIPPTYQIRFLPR
Experimental: For this, the activity of CYP1A2, CYP2A6, CYP2B6, CYP2C9, CYP2C19, CYP2D6, and CYP3A4 was assessed after the administration of CKP-25 at 1 μM to determine (a) the oxidative (CYP-mediated) metabolic stability profile in question and (b) the enzyme metabolizing isoforms responsible (the test system consists of recombinant human CYP450 and CYP450 reductase; cytochrome b5 may also be present). Herein, no concentration-dependent effects were reported. […] No product inhibition or mechanism-based inactivation of the CYP450 isoenzymes in question was obtained. Test-compounds with poor solubility can show artificially low CYP450 inhibition and thus, chemical entities with potential drug–drug interaction toxicities may be overlooked.
Human cytochrome P450 (CYP450) isoenzymes were expressed in Baculosomes obtained from Thermo Fisher Scientific (Waltham, MA, USA). Reagents were handled and prepared following the manufacturer’s guidelines. Compound CKP-25 was evaluated at a concentration of 1 μM according to our established standard operating procedures and protocols as described previously.[127],[128] The enzymatic activity of various CYP450 isoforms (CYP1A2, CYP2A6, CYP2B6, CYP2C9, CYP2C19, CYP2D6, and CYP3A4) was measured, considering the kinetic model for each isoform. The reactions were conducted in triplicate at 20 °C. NADP+ (10 mM in 100 mM potassium phosphate, pH 8.0) was converted to NADPH using a regeneration system containing glucose-6-phosphate (333 mM) and glucose-6-phosphate dehydrogenase (30 U/mL in 100 mM potassium phosphate, pH 8.0). Upon the addition of the fluorescent substrate, signal monitoring was performed immediately (within 2 min) using appropriate excitation and emission wavelengths, recorded by an Agilent BioTek Lionheart FX (Winooski, VT, USA). CYP450 inhibition (%) was calculated based on the reaction rates (fluorescence intensity changes per unit time). In total, n = 60 meaurements per minute were recorded over a 60 min period. [drawing 2] where X, the rate observed in the presence of a test-compound; A, the rate observed in the presence of negative (solvent, DMSO) control.

SARS-CoV-2 [3] = format: cell-based; remark: listed apart in the source
[4] = Metabolic stability in human liver microsomes; format: in vitro ADME
Excerpt: CKP-25 was studied for its metabolic stability. In particular, the metabolic stability of a compound can be interpreted using several approaches, as it can be ranked in terms of its intrinsic clearance (CLint) and in vitro t1/2 values or based on parent structure loss during metabolic reactions[96],[97] CLin describes the maximum activity of liver (microsomal proteins or hepatocytes) toward a compound not influenced by other physiological determinants, such as hepatic blood flow and drug binding within the blood matrix and in vitro t1/2 expresses the time for 50% disappearance of the compound. Parent structure loss was our option for metabolic stability data interpretation of CKP-25. Parent structure loss is classified as very slow (<5%), slow (5–19%), moderate (20–50%), fast (50–80%) or very fast (>80%). Such categories have been defined according to set criteria, namely, high metabolism (t1/2 value of <30 min), moderate metabolism (30 min < t1/2 value of <60 min) and low metabolism (t1/2 value of >60 min).[98]−[100]
Metabolic stability was evaluated using pooled human liver microsomes at a 0.5 mg/mL concentration. […] Each test-compound was assessed at a concentration of 1 μM. […] The depletion of test compounds was then profiled, and the residual percentage compared to time zero was determined. The readouts were recorded using a Lionheart FX system from Agilent BioTek (Winooski, VT, USA).

SARS-CoV-2 [5] = assay: microbe, parasite or virus in culture; format: cell-based

In the case of `COc1cccc2c1ncn2Cc1ccc2ccccc2c1` [CKP-25, 4-Methoxy-1-(naphthalen-2-ylmethyl)-1H-benzo[d]imidazole], the “effect on viral load in the cell culture supernatant (in words)” value (SARS-CoV-2 [1]) is reported as “reduced the viral load”, the inhibition at 25 µM [2] is reported as 34% and the mean revertants (E. coli WP2 uvrA strain; 2.5 μg/plate, +S9) is reported as 13. For the same compound, the mean revertants (E. coli WP2 uvrA strain; 2.5 μg/plate, –S9) was 7.5, the mean revertants (E. coli WP2 uvrA strain; 25 μg/plate, +S9) was 19 and the mean revertants (E. coli WP2 uvrA strain; 25 μg/plate, –S9) was 12.5. For the same compound, the mean revertants (E. coli WP2 uvrA strain; 50 μg/plate, +S9) was 15, the mean revertants (E. coli WP2 uvrA strain; 50 μg/plate, –S9) was 13 and the mean revertants (E. coli WP2 uvrA strain; 100 μg/plate, +S9) was 13. For the same compound, the mean revertants (E. coli WP2 uvrA strain; 100 μg/plate, –S9) was 11.5, the mean revertants (E. coli WP2 uvrA strain; 200 μg/plate, +S9) was 16 and the mean revertants (E. coli WP2 uvrA strain; 200 μg/plate, –S9) was 5.5. For the same compound, the “mutagenic activity (in words)” value (E. coli WP2 uvrA strain; 12.5 to 200 μg/plate, with and without S9-mix) was “does not elicit mutagenic effect; also recorded: does not exhibit mutagenic activity”, the inhibition at 60 min, 1 µM (CYP2B6) was 0% and the “reduction of the viral titter (TCID50)” value (SARS-CoV-2 [3]) was “approximately 90%”. For the same compound, the “substrate depletion (in words)” value [4] was “slow substrate depletion”, the “effect on the cytopathic effect of SARS-CoV-2 (in words)” value (SARS-CoV-2 [5]) was “consistently reduced the cytopathic effect” and the IC50 (SARS-CoV-2 [5]; Severe acute respiratory syndrome coronavirus 2, Vero C1008, 48 h, read-out: IC50, SARS-CoV-2 CPE) was 3.5 µM.
